Values after ≈ are worked out from the molar mass of the structure shown.
System: S. aureus strain 15981
Test: not given
Details: S. aureus 15981, hyperbiofilm human clinical strain; cited from earlier work
For `C[C@@H]1O[C@@H]1P(=O)(O)O` [FOF], the antibiotic susceptibility is listed as “susceptible”. For `CC1(C)S[C@@H]2[C@H](NC(=O)[C@H](N)c3ccc(O)cc3)C(=O)N2[C@H]1C(=O)O` [AMX], the antibiotic susceptibility is given as “susceptible”. For `CN[C@H](CC(C)C)C(=O)N[C@H]1C(=O)N[C@@H](CC(N)=O)C(=O)N[C@H]2C(=O)N[C@H]3C(=O)N[C@H](C(=O)N[C@H](C(=O)O)c4cc(O)cc(O)c4-c4cc3ccc4O)[C@H](O)c3ccc(c(Cl)c3)Oc3cc2cc(c3O[C@@H]2O[C@H](CO)[C@@H](O)[C@H](O)[C@H]2O[C@H]2C[C@](C)(N)[C@H](O)[C@H](C)O2)Oc2ccc(cc2Cl)[C@H]1O` [Vancomycin], the antibiotic susceptibility is given as “susceptible”. In the case of `C[C@H]1c2cccc(O)c2C(O)=C2C(=O)[C@]3(O)C(O)=C(C(N)=O)C(=O)[C@@H](N(C)C)[C@@H]3[C@@H](O)[C@@H]21` [DOX], the antibiotic susceptibility is given as “susceptible”. In the case of `CC[C@H]1OC(=O)[C@H](C)[C@@H](O[C@H]2C[C@@](C)(OC)[C@@H](O)[C@H](C)O2)[C@H](C)[C@@H](O[C@@H]2O[C@H](C)C[C@H](N(C)C)[C@H]2O)[C@](C)(O)C[C@@H](C)C(=O)[C@H](C)[C@@H](O)[C@]1(C)O` [Erythromycin], the antibiotic susceptibility is given as “susceptible”. For `COc1cccc(OC)c1C(=O)N[C@@H]1C(=O)N2[C@@H]1SC(C)(C)[C@@H]2C(=O)O` [MET], the antibiotic susceptibility is listed as “susceptible”.

System: S. aureus
Test: Biofilm formation on polystyrene microtitre plates (crystal violet, O.D.570)
Type: cell-based, Staphylococcus aureus
Details: DK825, 200 μM
Method: Effect of c-di-GMP on S. aureus biofilm formation. S. aureus strains were subcultured from glycerol stocks onto blood agar plates and incubated at 37° C. for 18 h. A single colony was inoculated into 5 ml TSB broth with a sterilized loop and incubated at 37° C. for 18 h with shaking at 250 rpm and until the O.D.660 reached 3.0 as measured spectrophotometrically using a spectrophotometer (SpectraMAX 250, Molecular Devices). Following incubation, the culture was diluted 1:250 with fresh TSB and a 200 μl of the diluted culture was transferred into wells of a flat-bottom polystyrene microtitre plate (Evergreen Scientific). […] In these biofilm experiments, similar volumes of 0.9% NaCl was added to a set of different wells representing the “untreated” control samples. The microtitre plates were then incubated statically at 37° C. for 24 h or 48 h. Following incubation, the supernatant was carefully discarded and the wells washed twice with 260 μl PBS. The plate was then kept for drying on a paper towel for 30 min after which 260 μl 0.1% crystal violet was added to each well and the plates incubated at room temperature for 30 min. The crystal violet was discarded and plate washed gently with water, the wells allowed to dry for 30 min then 260 μl DMSO was added to each well and gently agitated for 1 h and the O.D.570 measured by using a spectrophotometer (SpectraMAX 250, Molecular Devices). The results of these biofilm assays were based on data obtained from at least three independent colonies tested in duplicate.
With `Nc1nc2c(ncn2[C@@H]2O[C@H](COP(=O)(O)O)[C@@H](O)[C@H]2O)c(=O)[nH]1` [5′-GMP, guanosine 5′-monophosphate, reference compound] the “effect on biofilm formation” value was “no effect”.

Same assay, conditions: DK825, 200 μM, 24 h
In the case of `Nc1nc2c(ncn2[C@@H]2O[C@@H]3COP(=O)(O)O[C@H]3[C@H]2O)c(=O)[nH]1` [cGMP, guanosine 3′, 5′-cyclic monophosphate, reference compound], the “reduction of biofilm formation” value is reported as ~40%.

System: S. aureus strain DK825
Test: microbe, parasite or virus in culture
Type: cell-based, Staphylococcus aureus
Details: S. aureus DK825 (MRSA)
Method: Antibiotic susceptibility testing. Susceptibility tests were performed in Sensititre microtitre plates according to the manufacturer's instructions (Microbiology Systems).
For Penicillin, the MIC was > 8 µg/mL.

Same assay, conditions: Staphylococcus aureus, MRSA
For `C[C@H]1COc2c(N3CCN(C)CC3)c(F)cc3c(=O)c(C(=O)O)cn1c23` [Levofloxacin], the MIC was 2 µg/mL (≈ 5.53 µM). With `Cc1onc(-c2ccccc2)c1C(=O)N[C@@H]1C(=O)N2[C@@H]1SC(C)(C)[C@@H]2C(=O)O` [Oxacillin] the MIC was > 2 µg/mL. For `COc1c(N2C[C@@H]3CCCN[C@@H]3C2)c(F)cc2c(=O)c(C(=O)O)cn(C3CC3)c12` [Moxifloxacin], the MIC was 2 µg/mL (≈ 4.98 µM). `CC1(C)S[C@@H]2[C@H](NC(=O)[C@H](N)c3ccccc3)C(=O)N2[C@H]1C(=O)O` [Ampicillin] gave an MIC of 4 µg/mL (≈ 11.4 µM). For `CN[C@H](CC(C)C)C(=O)N[C@H]1C(=O)N[C@@H](CC(N)=O)C(=O)N[C@H]2C(=O)N[C@H]3C(=O)N[C@H](C(=O)N[C@H](C(=O)O)c4cc(O)cc(O)c4-c4cc3ccc4O)[C@H](O)c3ccc(c(Cl)c3)Oc3cc2cc(c3O[C@@H]2O[C@H](CO)[C@@H](O)[C@H](O)[C@H]2O[C@H]2C[C@](C)(N)[C@H](O)[C@H](C)O2)Oc2ccc(cc2Cl)[C@H]1O` [Vancomycin], the MIC was < 0.5 µg/mL. For `CC[C@H]1OC(=O)[C@H](C)[C@@H](O[C@H]2C[C@@](C)(OC)[C@@H](O)[C@H](C)O2)[C@H](C)[C@@H](O[C@@H]2O[C@H](C)C[C@H](N(C)C)[C@H]2O)[C@](C)(O)C[C@@H](C)C(=O)[C@H](C)[C@@H](O)[C@]1(C)O` [Erythromycin], the MIC was > 4 µg/mL. For `CCC[C@@H]1C[C@@H](C(=O)N[C@@H]([C@H]2O[C@H](SC)[C@H](O)[C@@H](O)[C@H]2O)[C@H](C)Cl)N(C)C1` [Clindamycin], the MIC was > 2 µg/mL. For `CC[C@H]1OC(=O)[C@H](C)[C@@H](O[C@H]2C[C@@](C)(OC)[C@@H](O)[C@H](C)O2)[C@H](C)[C@@H](O[C@@H]2O[C@H](C)C[C@H](N(C)C)[C@H]2O)[C@](C)(OC)C[C@@H](C)C(=O)[C@H](C)[C@@H](O)[C@]1(C)O` [Clarithromycin], the MIC was > 4 µg/mL. With `O=C(O)c1cn(C2CC2)c2cc(N3CCNCC3)c(F)cc2c1=O` [Ciprofloxacin] the MIC was > 2 µg/mL. For `CO[C@H]1/C=C/O[C@@]2(C)Oc3c(C)c(O)c4c(O)c(c(/C=N/N5CCN(C)CC5)c(O)c4c3C2=O)NC(=O)/C(C)=C\C=C\[C@H](C)[C@H](O)[C@@H](C)[C@@H](O)[C@@H](C)[C@H](OC(C)=O)[C@@H]1C` [Rifampin], the MIC was > 2 µg/mL.

— patent US8367716B2 (priority 2003, dated 2013)
